{
  "source": "ChEMBL document CHEMBL5352401",
  "about": "“Novel cudraisoflavone J derivatives as potent neuroprotective agents for the treatment of Parkinson's disease via the activation of Nrf2/HO-1 signaling” (Eur J Med Chem, 2022)",
  "key": {"PC-12 [1]": {"test_system": "PC-12", "assay": "Neuroprotective activity against 6-OHDA-induced cytotoxicity in rat PC-12 cells at 10 to 30 uM for 4 hrs followed by exposure to 6-OHDA measured after 24 hrs by MTT assay", "format": "functional, cell-based", "conditions": "dose 10-30 µM, time 28.0 hrs"}, "PC-12 [2]": {"test_system": "PC-12", "assay": "Cytotoxicity in rat PC-12 cells assessed as cell viability measured upto 30 uM for 24 hrs by MTT assay", "format": "functional, cell-based"}, "PC-12 [3]": {"test_system": "PC-12", "assay": "Neuroprotective activity against 6-OHDA-induced cytotoxicity in rat PC-12 cells for 4 hrs followed by exposure to 6-OHDA measured after 24 hrs by MTT assay", "format": "functional, cell-based", "conditions": "dose 0.1-30 µM, time 28.0 hrs"}, "PC-12 [4]": {"test_system": "PC-12", "assay": "Cytotoxicity in rat PC-12 cells assessed as cell viability measured at 30 uM for 24 hrs by MTT assay relative to control", "format": "functional", "conditions": "read-out: Activity"}, "PC-12 [5]": {"test_system": "PC-12", "assay": "Cytotoxicity in rat PC-12 cells assessed as cell viability incubated for 24 hrs by MTT assay", "format": "functional, cell-based", "conditions": "PC-12, 24 h"}, "[6]": {"assay": "Neurotoxicity in rotenone induced at rat PC-12 cells assessed as cell viability at 30 uM pretreated for 4 hrs followed by rotenone addition measured after 24 hrs by MTT assay (reference value: 53.4 +/- 2.6%)", "format": "toxicity, cell-based", "conditions": "time 28 hrs, read-out: Activity"}, "[7]": {"assay": "Neurotoxicity in rotenone induced at rat PC-12 cells assessed as cell viability pretreated with compound for 4 hrs followed by rotenone addition measured after 24 hrs by MTT assay", "format": "toxicity, cell-based"}},
  "note": "Calls of active or inactive are those of the source. The rule behind the calls is not given here.",
  "data": [
    {"molecule": "COc1cccc(-c2coc3cc(O)c4c(c3c2=O)OC(C)(C)C(O)C4)c1", "note": "(configuration not stated)", "values": [
      {"measurement": "Activity", "setting": "PC-12 [1]", "result": "Active"},
      {"measurement": "Activity", "setting": "PC-12 [2]", "result": "inactive"},
      {"measurement": "Activity", "setting": "PC-12 [3]", "result": "Dose-Dependent Effect"},
      {"measurement": "viability at 30 µM", "setting": "PC-12 [4]", "result": 86, "unit": "%"},
      {"measurement": "IC50", "setting": "PC-12 [5]", "result": 8, "unit": "µM"},
      {"measurement": "viability at 30 µM", "setting": "[6]", "result": 80.3, "unit": "%"},
      {"measurement": "IC50", "setting": "[7]", "result": 5.5, "unit": "µM"}
    ]}
  ]
}
